Molecular target: T1, Tyrosine-protein phosphatase non-receptor type 22 (Homo sapiens, UniProt Q9Y2R2)
T1 sequence (Q9Y2R2 whole entry): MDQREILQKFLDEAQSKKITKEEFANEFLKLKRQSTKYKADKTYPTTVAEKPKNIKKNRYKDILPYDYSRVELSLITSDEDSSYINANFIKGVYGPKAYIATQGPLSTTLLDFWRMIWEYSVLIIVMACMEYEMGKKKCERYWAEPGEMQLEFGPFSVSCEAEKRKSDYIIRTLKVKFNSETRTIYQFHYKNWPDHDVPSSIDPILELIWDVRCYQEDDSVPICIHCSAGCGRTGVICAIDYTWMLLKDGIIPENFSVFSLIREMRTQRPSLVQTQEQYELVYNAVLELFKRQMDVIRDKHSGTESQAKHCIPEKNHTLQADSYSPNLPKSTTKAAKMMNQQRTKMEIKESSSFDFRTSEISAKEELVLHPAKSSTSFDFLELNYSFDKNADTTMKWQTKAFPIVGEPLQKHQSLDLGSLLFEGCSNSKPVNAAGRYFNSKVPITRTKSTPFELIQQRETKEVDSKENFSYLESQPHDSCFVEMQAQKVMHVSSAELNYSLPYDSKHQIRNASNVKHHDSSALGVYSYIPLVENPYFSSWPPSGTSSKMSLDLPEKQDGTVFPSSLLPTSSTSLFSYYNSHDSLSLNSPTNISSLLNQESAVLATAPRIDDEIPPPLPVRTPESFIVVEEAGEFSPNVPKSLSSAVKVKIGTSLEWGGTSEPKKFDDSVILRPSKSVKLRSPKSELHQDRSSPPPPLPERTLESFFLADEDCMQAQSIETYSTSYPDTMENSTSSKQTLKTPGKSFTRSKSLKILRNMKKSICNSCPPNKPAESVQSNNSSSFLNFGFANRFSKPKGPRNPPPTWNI
Assay: Inhibition of lymphoid specific tyrosine phosphatase

Structure (SMILES)	IC50
O=C(O)C(Cc1ccccc1)N1C(=O)/C(=C/C2=c3ccccc3=CCC2)SC1=S (stereo not given)	14 µM
O=C1CN(/N=C/c2ccc(-c3ccc(O)c(C(=O)O)c3)o2)C(=O)N1	> 44 µM
O=C(O)CN1C(=O)CN(/N=C/c2ccc(-c3ccc(O)c(C(=O)O)c3)o2)C1=O	36 µM
O=C(O)CN1C(=O)CN(/N=C/c2ccc(-c3ccc(O)c(C(=O)O)c3)s2)C1=O	> 44 µM
COC(=O)c1cc(-c2ccc(/C=N/N3CC(=O)NC3=O)o2)ccc1O	> 44 µM
COC(=O)c1cc(-c2ccc(/C=C3\SC(=S)N(CC(=O)O)C3=O)o2)ccc1O	21 µM
Cc1ccccc1NC(=O)CN1C(=O)S/C(=C\c2cccn2-c2cccc(C(=O)O)c2)C1=O	1.9 µM
COC(=O)CN1C(=O)S/C(=C\c2ccc(-c3ccc(O)c(C(=O)OC)c3)o2)C1=O	> 44 µM
Cc1ccc(NC(=O)CN2C(=O)S/C(=C\c3ccc(-c4cccc(C(=O)O)c4C)o3)C2=O)cc1 (stereo in doubt; form 1)	3.3 µM
COC(=O)CN1C(=O)S/C(=C\c2ccc(-c3ccc(O)c(C(=O)O)c3)o2)C1=O	4.8 µM
O=C(O)CCN1C(=O)/C(=C\c2ccc(-c3nc4ccccc4s3)o2)SC1=S	0.98 µM
COC(=O)c1cc(-c2ccc(/C=C3\SC(=S)N(CC(=O)O)C3=O)s2)ccc1O	4.3 µM
O=C(O)COc1ccc(-c2ccc(/C=C3\SC(=S)N(CC(=O)O)C3=O)o2)cc1C(=O)O	> 44 µM
COC(=O)CN1C(=O)S/C(=C\c2ccc(-c3ccc(O)c(C(=O)OC)c3)s2)C1=O	> 44 µM
Cc1cccc(C)c1NC(=O)CN1C(=O)S/C(=C\c2cccn2-c2cccc(C(=O)O)c2)C1=O	4.8 µM
Cc1ccc(NC(=O)CN2C(=O)S/C(=C\c3cccn3-c3cccc(C(=O)O)c3)C2=O)c(C)c1	1 µM
COC(=O)c1cc(-c2ccc(/C=C3\SC(=O)N(CCC(=O)O)C3=O)s2)ccc1O	0.39 µM
COC(=O)CCN1C(=O)S/C(=C\c2ccc(-c3ccc(O)c(C(=O)OC)c3)o2)C1=O	44 µM

Structure (SMILES)	IC50
O=C(O)CN1C(=O)S/C(=C\c2ccc(-c3ccc(O)c(C(=O)O)c3)o2)C1=O	5.6 µM
CC(C)C(C(=O)O)N1C(=O)/C(=C/C=C/c2ccco2)SC1=S (stereo not given)	1.9 µM
O=C(O)CCN1C(=O)S/C(=C\c2ccc(-c3ccc(O)c(C(=O)O)c3)o2)C1=O	5.1 µM
O=C(O)CN1C(=O)/C(=C/c2ccc(-c3ccc(O)c(C(=O)O)c3)s2)SC1=S	5.4 µM
COC(=O)c1cc(-c2ccc(/C=C3\SC(=O)N(CC(=O)O)C3=O)s2)ccc1O	18 µM
O=C(O)CCN1C(=O)S/C(=C\c2ccc(-c3ccc(O)c(C(=O)O)c3)s2)C1=O	5.9 µM
COC(=O)CCN1C(=O)S/C(=C\c2ccc(-c3ccc(O)c(C(=O)OC)c3)s2)C1=O	> 44 µM
COC(=O)c1cc(-c2ccc(/C=C3\SC(=O)N(CC(=O)O)C3=O)o2)ccc1O	> 44 µM
COC(=O)c1cc(-c2ccc(/C=C3\SC(=O)N(CCC(=O)O)C3=O)o2)ccc1O	4.3 µM
Cc1ccc(NC(=O)CN2C(=O)S/C(=C\c3ccc(-c4cccc(C(=O)O)c4C)o3)C2=O)cc1 (stereo in doubt; form 2)	3.5 µM
O=C(O)CN1C(=O)S/C(=C\c2ccc(-c3ccc(O)c(C(=O)O)c3)s2)C1=O	2.8 µM
O=C(O)CN1C(=O)/C(=C/c2ccc(-c3ccc(O)c(C(=O)O)c3)o2)SC1=S	8.7 µM
O=C1CN(/N=C/c2ccc(-c3ccc(O)c(C(=O)O)c3)s2)C(=O)N1	34 µM
COC(=O)CN1C(=O)S/C(=C\c2ccc(-c3ccc(O)c(C(=O)O)c3)s2)C1=O	1.8 µM
COC(=O)c1cc(-c2ccc(/C=N/N3CC(=O)NC3=O)s2)ccc1O	> 44 µM
O=C(O)CCCN1C(=O)/C(=C\c2ccc(-c3nc4ccccc4s3)o2)SC1=S	1.3 µM
CC(C(=O)O)N1C(=O)/C(=C/C=C/c2ccco2)SC1=S (stereo not given)	2.5 µM

Source: ChEMBL document CHEMBL1145638, “Discovery of a novel submicromolar inhibitor of the lymphoid specific tyrosine phosphatase” (Bioorg Med Chem Lett, 2008)
